Results: BindingDB's records for PubMed 1353247 (University of Nebraska, 1992)
Values joined by “and” are separate entries in the source; they are usually repeats but may differ in a detail not shown here. Equal values may be shown once.

Legend:
[1] = biological target: T1, Alpha-2B adrenergic receptor (Rattus norvegicus, UniProt P19328)
T1 sequence (P19328 whole entry): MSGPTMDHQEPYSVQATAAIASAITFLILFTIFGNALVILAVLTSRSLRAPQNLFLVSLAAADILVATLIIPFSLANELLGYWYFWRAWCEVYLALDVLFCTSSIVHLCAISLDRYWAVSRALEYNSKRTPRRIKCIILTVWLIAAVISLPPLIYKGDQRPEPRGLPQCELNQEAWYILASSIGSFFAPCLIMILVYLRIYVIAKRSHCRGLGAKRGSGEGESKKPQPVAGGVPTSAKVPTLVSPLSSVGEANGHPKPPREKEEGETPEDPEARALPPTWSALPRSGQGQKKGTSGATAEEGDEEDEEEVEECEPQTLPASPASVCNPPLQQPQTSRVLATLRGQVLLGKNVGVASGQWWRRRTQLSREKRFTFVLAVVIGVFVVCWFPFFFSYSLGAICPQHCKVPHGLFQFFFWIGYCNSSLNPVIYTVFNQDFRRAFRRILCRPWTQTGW

[2] = biological target: Alpha-2C adrenergic receptor
[3] = biological target: T2, Alpha-2A adrenergic receptor (Homo sapiens, UniProt P08913)
T2 sequence (P08913 whole entry): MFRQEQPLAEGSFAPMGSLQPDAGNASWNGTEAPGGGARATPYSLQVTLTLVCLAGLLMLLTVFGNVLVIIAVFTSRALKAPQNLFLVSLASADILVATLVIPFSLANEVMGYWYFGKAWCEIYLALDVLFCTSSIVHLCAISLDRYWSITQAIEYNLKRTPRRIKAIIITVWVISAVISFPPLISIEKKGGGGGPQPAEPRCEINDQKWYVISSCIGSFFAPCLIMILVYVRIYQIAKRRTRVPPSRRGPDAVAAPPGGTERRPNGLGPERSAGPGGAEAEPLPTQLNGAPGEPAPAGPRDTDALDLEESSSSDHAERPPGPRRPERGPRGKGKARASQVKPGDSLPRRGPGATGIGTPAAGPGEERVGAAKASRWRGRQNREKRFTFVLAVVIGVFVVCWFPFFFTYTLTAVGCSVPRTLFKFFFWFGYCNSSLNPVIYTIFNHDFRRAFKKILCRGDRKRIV

[4] = biological target: T3, Alpha-2C adrenergic receptor (Homo sapiens, UniProt P18825)
T3 sequence (P18825 whole entry): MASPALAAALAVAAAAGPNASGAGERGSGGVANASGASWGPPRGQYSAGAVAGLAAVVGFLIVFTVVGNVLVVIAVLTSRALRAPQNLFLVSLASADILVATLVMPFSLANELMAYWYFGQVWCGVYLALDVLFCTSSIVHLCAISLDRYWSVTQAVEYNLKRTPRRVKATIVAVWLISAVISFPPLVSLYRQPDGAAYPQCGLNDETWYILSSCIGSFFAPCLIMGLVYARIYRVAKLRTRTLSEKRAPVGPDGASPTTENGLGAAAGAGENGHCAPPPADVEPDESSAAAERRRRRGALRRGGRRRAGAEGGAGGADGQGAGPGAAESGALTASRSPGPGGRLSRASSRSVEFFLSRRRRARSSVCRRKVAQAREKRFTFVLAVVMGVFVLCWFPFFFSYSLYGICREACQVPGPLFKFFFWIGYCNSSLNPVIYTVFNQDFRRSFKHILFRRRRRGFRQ

SMILES	Ki [1] [nM]	Ki [2] [nM]	Ki [3]	Ki [4] [nM]
COC(=O)C1=CO[C@@H](C)[C@@H]2CN3CCc4c([nH]c5ccccc45)[C@H]3C[C@H]12 [AKUAMMIGINE]	159	20	71 nM and 104 nM	–
CN1C[C@H](Cn2ccnc2-c2ccccc2)C[C@@H]2c3cccc4[nH]c(Br)c(c34)C[C@H]21 [BAM-1303]	6.94	–	0.39 nM and 1.34 nM	0.39
COC(=O)C1=COC(C)C2CN3CCc4c([nH]c5ccccc45)C3CC12 (stereo not drawn) [Ajmalicine]	31.2	1.71	6.4 nM	–
COc1cccc(OC)c1OCCNCC1Oc2ccccc2OC1c1ccccc1 (stereo not drawn) [NSC_185453]	7.89	0.75	0.91 nM and 1.27 nM	0.4
COc1ccccc1N1CCN(CCC2C(=O)c3ccccc3C(C)(C)C2=O)CC1 (stereo not drawn) [NSC_122211]	–	–	–	3.82
O=C1NCN(c2ccccc2)C12CCN(CC1COc3ccccc3O1)CC2 (stereo not drawn) [8-(2,3-Dihydro-benzo[1,4]dioxin-2-ylmethyl)-1-phenyl-1,3,8-triaza-spiro[4.5]decan-4-one]	0.29	0.26	5.5 nM and 8.3 nM	0.13
